In article PMC3506384 (Cancer chemotherapy and pharmacology, 2011):
Read-outs that look alike come from different tables or passages of the source.

How the values were obtained:
clinical = conditions: human, plasma; for half-life: intravenous
[1] = co-administration of ketoconazole; cited from earlier work
[2] = cited from earlier work
[3] = cited from earlier work; remark: listed apart in the source
Phase I dose escalation = format: in vivo, human
[4] = Bortezomib plasma pharmacokinetics, non-compartmental, LC-MS/MS
[5] = Serum anticonvulsant levels in group A patients; format: in vivo, human; conditions: all 3 patients in group A; at PK sampling on days 2 and 9 of cycle 1
[6] = patients not taking concomitant HEIAs (group B)
[7] = Day 2, bortezomib 1.0 mg/m^2, group A (taking HEIAs), N 1
[8] = Day 2, bortezomib 1.0 mg/m^2, group B (not taking HEIAs), N 13, median (range)
[9] = Day 2, bortezomib 1.3 mg/m^2, group A (taking HEIAs), N 1
[10] = Day 2, bortezomib 1.3 mg/m^2, group B (not taking HEIAs), N 6, median (range)
[11] = Day 2, bortezomib 1.5 mg/m^2, group A (taking HEIAs), N 1
[12] = Day 2, bortezomib 1.5 mg/m^2, group B (not taking HEIAs), N 1
[13] = Day 9, bortezomib 1.0 mg/m^2, group A (taking HEIAs), N 1
[14] = Day 9, bortezomib 1.0 mg/m^2, group B (not taking HEIAs), N 13, median (range)
[15] = Day 9, bortezomib 1.3 mg/m^2, group A (taking HEIAs), N 1
[16] = Day 9, bortezomib 1.3 mg/m^2, group B (not taking HEIAs), N 6, median (range)

For `CC(C)C[C@H](NC(=O)[C@H](Cc1ccccc1)NC(=O)c1cnccn1)B(O)O` [bortezomib], the half-life (clinical; 1 mg/m2) was 11.3 h, the half-life (clinical; 1.3 mg/m2) was 12.4 h and the half-life (clinical; 1.5 mg/m2) was 6.4 h. For the same molecule, the Cmax (clinical; iv, 1 mg/m^2) was 65.5 ng/mL, the “mean increase in systemic exposure of bortezomib with ketoconazole” value [1] was 35% and the “MTD of single agent bortezomib” value ([2]; recurrent malignant glioma patients not taking HEIAs) was 1.7 mg/m^2. For the same molecule, the “MTD of single agent bortezomib” value ([2]; recurrent malignant glioma patients receiving concurrent HEIAs) was 2.5 mg/m^2, the “individual MTD (single agent)” value ([3]; bortezomib alone) was 1.6 mg/m^2 and the “MTD of bortezomib in combination with temozolomide” value (Phase I dose escalation; patients not taking HEIAs, days 2, 5, 9, 12 of a 28-day cycle) was 1.3 mg/m^2. The “recommended dose for phase 2 studies, bortezomib in the combination” value (Phase I dose escalation; patients not taking HEIAs, days 2, 5, 9 and 12, every 28 days) was 1.3 mg/m^2, the “MTD of bortezomib in combination with temozolomide” value (Phase I dose escalation; [6]) was 1.3 mg/m^2/dose and the “AUC 0–∞” value [4, 7] was 20.8 µg·h/L. For the same molecule, the CLsys [4, 7] was 115.7 L/h, the “AUC 0–∞” value [4, 8] was 33.6 (21–106) ug/l × h and the CLsys [4, 8] was 46.6 (17–90) l/h. The “Elimination T1/2” value [4, 8] was 12.7 (2–21) h, the “AUC 0–∞” value [4, 9] was 40.4 µg·h/L and the CLsys [4, 9] was 64.4 L/h. For the same molecule, the “AUC 0–∞” value [4, 10] was 56.1 (34–97) ug/l × h, the CLsys [4, 10] was 44.0 (21–81) l/h and the “Elimination T1/2” value [4, 10] was 18.8 (13–26) h. The “AUC 0–∞” value [4, 11] was 30.6 µg·h/L, the CLsys [4, 11] was 94.8 L/h and the “AUC 0–∞” value [4, 12] was 137.4 µg·h/L. The CLsys [4, 12] was 16.0 L/h, the “AUC 0–∞” value [4, 13] was 30.7 µg·h/L and the CLsys [4, 13] was 78.1 L/h. The “Elimination T1/2” value [4, 13] was 15.5 h, the “AUC 0–∞” value [4, 14] was 86.8 (32–216) ug/l × h and the CLsys [4, 14] was 20.7 (9–59) l/h. For the same molecule, the “AUC 0–∞” value [4, 15] was 72.4 µg·h/L, the CLsys [4, 15] was 35.9 L/h and the “Elimination T1/2” value [4, 15] was 11.1 h. For the same molecule, the “AUC 0–∞” value [4, 16] was 120.0 (78–206) ug/l × h, the CLsys [4, 16] was 21.2 (10–33) l/h and the “Elimination T1/2” value [4, 16] was 18.9 (12–41) h. For the same molecule, the “CLsys on day 9 as percent of the CLsys on day 2” value ([4]; median percent change, P < 0.01, paired Wilcoxon test, all patients with PK) was 51% and the “rapid initial decline of plasma concentration” value ([4]; within the first few hours after the dose, both groups) was 100 fold.
With `O=C1NC(=O)C(c2ccccc2)(c2ccccc2)N1` [phenytoin] the serum phenytoin levels [5] was “within the therapeutic range”.
For `Cn1nnc2c(C(N)=O)ncn2c1=O` [temozolomide], the “individual MTD (single agent)” value ([3]; temozolomide alone) is given as 200 mg/m^2, the “recommended dose for phase 2 studies, temozolomide in the combination” value (Phase I dose escalation; patients not taking HEIAs, days 1–5, every 28 days) is given as 200 mg/m^2 and the “MTD of temozolomide in combination with bortezomib” value (Phase I dose escalation; patients not taking HEIAs, days 1–5 of a 28-day cycle) is given as 200 mg/m^2. For the same molecule, the “MTD of temozolomide in combination with bortezomib” value (Phase I dose escalation; [6]) was 200 mg/m^2/dose.
